Data taken from ChEMBL document CHEMBL1201862, “PubChem BioAssay data set” (2004).
Active and inactive are the calls of the source.

Experiments:
[1] = system: Streptococcus sp. 'group A'; test: growth inhibition of control SK(-) GAS strain, dose response, counter-screen for streptokinase expression inhibitor project, luminescence, kanamycin, BacTiterGlo, confirmation (AID 1900); assay type: functional, organism-based
[2] = target: T1, Streptokinase A (Streptococcus pyogenes serotype M1, UniProt P10520); test: S. pyogenes streptokinase expression inhibitors, potency, dose response, plasminogen activation absorbance, OD405 (AID 1914); assay type: functional, Streptococcus pyogenes M1 GAS;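 note: secreted streptokinase activity via plasminogen activation per viability signal from cell pellet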
T1 sequence (P10520 whole entry): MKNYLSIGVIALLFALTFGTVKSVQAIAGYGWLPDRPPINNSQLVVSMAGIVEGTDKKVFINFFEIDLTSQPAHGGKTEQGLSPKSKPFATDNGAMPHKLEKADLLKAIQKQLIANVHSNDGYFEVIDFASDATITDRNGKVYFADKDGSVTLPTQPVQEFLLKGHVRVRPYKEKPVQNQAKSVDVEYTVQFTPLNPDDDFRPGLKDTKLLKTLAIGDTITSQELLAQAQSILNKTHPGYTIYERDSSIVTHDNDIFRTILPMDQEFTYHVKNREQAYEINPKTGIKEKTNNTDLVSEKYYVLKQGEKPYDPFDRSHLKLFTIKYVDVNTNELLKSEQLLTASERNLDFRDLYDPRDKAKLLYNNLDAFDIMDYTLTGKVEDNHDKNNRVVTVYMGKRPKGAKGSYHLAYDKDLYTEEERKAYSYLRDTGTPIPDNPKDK

[3] = system: Streptococcus; test: Group A Streptococcus viability loss, dose response, counter-screen for streptokinase expression inhibitor project, luminescence, BacTiterGlo (AID 1915); assay type: functional, organism-based;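 note: potency for reduction of bacterial viability or growth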
[4] = Shn3 3'UTR reporter inhibitors, dose response, cell-based, Clone20 osteoblasts, firefly luciferase, cherry-picked (AID 624132); assay type: functional;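 note: firefly luciferase luminescence from reporter carrying the Shn3 3'UTR in osteoblasts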
[5] = HepG2 cell cytotoxicity, dose response, cytotoxicity control for Shn3 inhibitor project, CellTiter-Glo, cherry-picked (AID 624134); assay type: functional, cell-based
[6] = control 3'UTR Renilla luciferase suppression, dose response, counter-screen for Shn3 inhibitor project, cell-based, Clone20-Shn3RL, cherry-picked (AID 624133); assay type: functional
[7] = target: T2, Fatty acid synthase (Homo sapiens, UniProt P49327); test: FAS thioesterase domain inhibitors, dose response, biochemical, endpoint fluorescence intensity, uHTS hits (AID 624327); assay type: functional;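 note: fluorescence from hydrolysis of an O-methyl fluorescein acyl ester substrate by the enzyme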
T2 sequence (P49327 whole entry, the tested form may be a part): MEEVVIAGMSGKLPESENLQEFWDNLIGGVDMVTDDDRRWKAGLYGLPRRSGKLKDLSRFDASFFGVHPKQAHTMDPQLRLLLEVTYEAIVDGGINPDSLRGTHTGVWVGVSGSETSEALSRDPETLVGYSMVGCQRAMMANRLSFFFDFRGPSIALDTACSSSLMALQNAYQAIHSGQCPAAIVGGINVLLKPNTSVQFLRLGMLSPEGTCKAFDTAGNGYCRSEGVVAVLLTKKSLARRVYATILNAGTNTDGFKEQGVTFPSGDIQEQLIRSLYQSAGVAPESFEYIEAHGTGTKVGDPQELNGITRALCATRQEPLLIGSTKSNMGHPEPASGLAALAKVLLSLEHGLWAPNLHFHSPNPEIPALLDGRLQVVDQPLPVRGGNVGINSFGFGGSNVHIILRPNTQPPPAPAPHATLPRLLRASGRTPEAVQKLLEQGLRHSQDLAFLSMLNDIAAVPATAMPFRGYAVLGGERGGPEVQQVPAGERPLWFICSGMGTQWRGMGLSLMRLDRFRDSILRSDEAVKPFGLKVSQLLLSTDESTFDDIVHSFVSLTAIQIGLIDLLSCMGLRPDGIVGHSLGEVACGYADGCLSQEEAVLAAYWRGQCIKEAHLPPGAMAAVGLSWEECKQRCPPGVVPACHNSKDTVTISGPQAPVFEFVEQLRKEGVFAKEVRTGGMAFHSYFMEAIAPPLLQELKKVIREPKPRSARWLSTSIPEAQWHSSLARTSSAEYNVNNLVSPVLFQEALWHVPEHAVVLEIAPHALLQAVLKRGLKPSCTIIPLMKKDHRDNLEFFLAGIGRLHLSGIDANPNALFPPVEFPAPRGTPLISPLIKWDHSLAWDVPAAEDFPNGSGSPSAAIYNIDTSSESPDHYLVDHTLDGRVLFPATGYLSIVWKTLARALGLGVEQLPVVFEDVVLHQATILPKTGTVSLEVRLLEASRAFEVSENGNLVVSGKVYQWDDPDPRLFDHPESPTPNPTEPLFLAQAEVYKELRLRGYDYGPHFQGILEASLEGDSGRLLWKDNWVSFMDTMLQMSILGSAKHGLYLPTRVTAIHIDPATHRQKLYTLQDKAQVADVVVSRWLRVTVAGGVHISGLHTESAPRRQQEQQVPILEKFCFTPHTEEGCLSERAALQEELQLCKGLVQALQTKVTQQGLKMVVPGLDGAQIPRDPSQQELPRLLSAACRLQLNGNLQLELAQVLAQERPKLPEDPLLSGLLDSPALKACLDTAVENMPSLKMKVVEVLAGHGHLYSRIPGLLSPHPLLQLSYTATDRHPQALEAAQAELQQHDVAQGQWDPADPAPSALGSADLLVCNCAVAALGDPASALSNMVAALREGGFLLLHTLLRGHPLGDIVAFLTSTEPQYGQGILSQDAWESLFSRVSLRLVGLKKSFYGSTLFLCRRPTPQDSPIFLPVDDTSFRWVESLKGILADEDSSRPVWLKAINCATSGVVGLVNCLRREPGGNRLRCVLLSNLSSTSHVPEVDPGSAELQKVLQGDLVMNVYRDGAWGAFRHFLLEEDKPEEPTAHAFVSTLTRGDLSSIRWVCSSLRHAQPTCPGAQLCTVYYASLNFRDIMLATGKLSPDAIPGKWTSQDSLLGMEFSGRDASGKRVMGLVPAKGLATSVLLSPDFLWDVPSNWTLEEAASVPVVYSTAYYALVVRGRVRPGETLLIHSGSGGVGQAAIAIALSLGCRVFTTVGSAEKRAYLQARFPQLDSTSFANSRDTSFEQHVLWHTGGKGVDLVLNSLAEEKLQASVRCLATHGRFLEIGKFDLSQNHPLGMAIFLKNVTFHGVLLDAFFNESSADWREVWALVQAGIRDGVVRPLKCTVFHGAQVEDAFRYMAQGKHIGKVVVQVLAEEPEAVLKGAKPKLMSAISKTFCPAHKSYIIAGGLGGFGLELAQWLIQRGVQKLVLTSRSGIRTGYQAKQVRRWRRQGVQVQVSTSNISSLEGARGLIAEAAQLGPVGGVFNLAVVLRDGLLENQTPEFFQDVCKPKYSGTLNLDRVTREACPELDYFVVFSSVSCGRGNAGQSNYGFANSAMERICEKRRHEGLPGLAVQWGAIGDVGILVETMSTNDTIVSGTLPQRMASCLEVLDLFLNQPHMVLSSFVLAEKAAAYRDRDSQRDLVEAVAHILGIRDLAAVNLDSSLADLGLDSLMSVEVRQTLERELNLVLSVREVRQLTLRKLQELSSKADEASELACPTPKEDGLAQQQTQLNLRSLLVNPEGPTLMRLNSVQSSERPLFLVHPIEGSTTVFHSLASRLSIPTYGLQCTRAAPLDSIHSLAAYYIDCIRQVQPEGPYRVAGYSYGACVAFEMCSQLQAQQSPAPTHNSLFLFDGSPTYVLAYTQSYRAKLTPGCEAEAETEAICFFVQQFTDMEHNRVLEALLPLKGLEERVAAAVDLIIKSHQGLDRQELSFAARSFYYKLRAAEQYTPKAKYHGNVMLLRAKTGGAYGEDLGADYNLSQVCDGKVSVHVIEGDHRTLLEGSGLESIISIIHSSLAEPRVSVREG

[8] = target: T2, Fatty acid synthase; test: FAS thioesterase domain inhibitors, dose response, biochemical, kinetic fluorescence intensity (AID 624326); assay type: functional;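 note: rate of fluorescence rise from hydrolysis of a fluorogenic O-methyl fluorescein ester substrate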
[9] = target: Paired box protein Pax-8 (Homo sapiens, UniProt Q06710); test: inhibitors of PAX8-driven TPO luciferase reporter, dose response, RMG-I cells, cherry-pick (AID 687027); assay type: functional, cell-based;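 note: luciferase reporter driven by Pax8 target thyroperoxidase promoter measured by SteadyGlo luminescence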
Sequence of Paired box protein Pax-8 (Q06710 whole entry): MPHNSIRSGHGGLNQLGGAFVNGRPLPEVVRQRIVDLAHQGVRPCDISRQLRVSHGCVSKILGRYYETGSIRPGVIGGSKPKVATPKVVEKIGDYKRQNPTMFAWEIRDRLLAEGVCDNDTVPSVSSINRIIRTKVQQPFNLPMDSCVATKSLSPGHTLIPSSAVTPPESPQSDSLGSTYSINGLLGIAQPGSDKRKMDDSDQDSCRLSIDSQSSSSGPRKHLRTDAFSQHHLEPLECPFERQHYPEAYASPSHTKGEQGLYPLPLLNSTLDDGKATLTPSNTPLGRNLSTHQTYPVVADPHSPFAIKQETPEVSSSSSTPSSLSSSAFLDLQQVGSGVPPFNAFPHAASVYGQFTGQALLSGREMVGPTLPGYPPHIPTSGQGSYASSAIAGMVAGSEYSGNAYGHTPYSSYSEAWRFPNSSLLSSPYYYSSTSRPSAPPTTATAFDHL

[10] = non-specific cell cytotoxicity, dose response, cytotoxicity control for PAX8 inhibitor project, plate reader, dry powder samples (AID 743021); assay type: functional, cell-based
[11] = NIH/3T3 fibroblast cytotoxicity, dose response, cytotoxicity control, cell-based, plate reader, dry powder, set 2 (AID 652280); assay type: functional; settings: NIH3T3
[12] = T. cruzi growth inhibition in host cells, dose response, cell-based, plate reader, dry powder, set 2 (AID 652275); assay type: functional
[13] = growth inhibition of intracellular T. cruzi, dose response, cell-based, plate reader, dry powder samples (AID 651845); assay type: functional
[14] = NIH/3T3 fibroblast cytotoxicity, dose response, cytotoxicity control, cell-based, dry powder samples (AID 651844); assay type: functional; settings: NIH3T3
[15] = ADAM10 inhibitors, peptide cleavage, dose response, biochemical, QFRET (AID 743254);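 note: ADAM10 enzyme with the DM2 quenched FRET peptide as substrate; EDANS fluorescence gain as the protease cuts the substrate; inhibitor potency against ADAM10 proteolytic activity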
[16] = target: Disintegrin and metalloproteinase domain-containing protein 17 (Homo sapiens, UniProt P78536); test: ADAM17 protease inhibitors, dose response, counter-screen for ADAM10 exosite inhibitor project, biochemical, quenched FRET substrate (AID 743253)
[17] = A549 cell cytotoxicity, dose response, cytotoxicity control, plate reader, cherry-pick, antagonist series (AID 743412); assay type: functional, cell-based
[18] = LGR2 antagonists, dose response, cell-based, HEK293, CRE-luciferase reporter, cherry pick (AID 743342); assay type: functional
[19] = MC4R antagonists, dose response, counter-screen for LGR2 antagonist project, cell-based, plate reader, cherry pick (AID 743444); assay type: functional;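 note: transfected HEK 293 cells stimulated with alpha-MSH peptide; potency of inhibitors of the alpha-MSH evoked signal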
[20] = target: fMet-Leu-Phe receptor (Homo sapiens, UniProt P21462); test: FPR ligands, dose response (AID 519); assay type: functional
Sequence of fMet-Leu-Phe receptor (P21462 whole entry): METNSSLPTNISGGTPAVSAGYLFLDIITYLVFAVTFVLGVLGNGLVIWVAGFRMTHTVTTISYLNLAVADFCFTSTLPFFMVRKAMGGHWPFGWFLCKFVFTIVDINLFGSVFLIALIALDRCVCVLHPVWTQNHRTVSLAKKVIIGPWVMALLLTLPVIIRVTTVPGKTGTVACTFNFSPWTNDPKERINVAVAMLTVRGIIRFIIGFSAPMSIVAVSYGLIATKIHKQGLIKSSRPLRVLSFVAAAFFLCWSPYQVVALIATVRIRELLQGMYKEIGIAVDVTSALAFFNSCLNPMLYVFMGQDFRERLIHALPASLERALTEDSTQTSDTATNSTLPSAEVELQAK

[21] = inhibitors of TNFa-stimulated NF-kB luciferase reporter, dose response, selectivity assay for EBV LMP1 NF-kB inhibitor project, HEK293 LMP1 reporter cells, dry powder, set 2 (AID 624369); assay type: functional
[22] = LMP1-driven NF-kB reporter inhibition, dose response, cell-based, luciferase reporter, luminescence, dry powder, set 2 (AID 624376); assay type: functional
[23] = system: BHK-21; test: BHK-21 cell toxicity, dose response, cytotoxicity control, plate reader, cherry-pick samples (AID 687030); assay type: functional, cell-based; settings: Mesocricetus auratus
[24] = target: T3, Mitochondrial peptide methionine sulfoxide reductase (Bos taurus, UniProt P54149); test: Absorbance-based biochemical high throughput dose response assay for activators of Methionine sulfoxide reductase A (MsrA).; assay type: functional
T3 sequence (P54149 whole entry): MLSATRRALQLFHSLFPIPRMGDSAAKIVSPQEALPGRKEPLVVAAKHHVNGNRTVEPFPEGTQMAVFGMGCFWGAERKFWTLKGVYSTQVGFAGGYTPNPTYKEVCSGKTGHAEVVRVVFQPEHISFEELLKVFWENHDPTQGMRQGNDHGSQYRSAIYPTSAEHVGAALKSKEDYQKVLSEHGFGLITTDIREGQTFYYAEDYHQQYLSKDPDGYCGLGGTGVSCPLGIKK

[25] = target: SWI/SNF-related matrix-associated actin-dependent regulator of chromatin subfamily A member 2 (Homo sapiens, UniProt P51531); test: Luminescence-based cell-based high throughput dose response assay to identify activators of the function of SWI/SNF related, matrix associated, actin dependent regulator of chromatin, subfamily a, member 2 (SMARCA2, BRM).; assay type: functional
Sequence of SWI/SNF-related matrix-associated actin-dependent regulator of chromatin subfamily A member 2 (P51531 whole entry): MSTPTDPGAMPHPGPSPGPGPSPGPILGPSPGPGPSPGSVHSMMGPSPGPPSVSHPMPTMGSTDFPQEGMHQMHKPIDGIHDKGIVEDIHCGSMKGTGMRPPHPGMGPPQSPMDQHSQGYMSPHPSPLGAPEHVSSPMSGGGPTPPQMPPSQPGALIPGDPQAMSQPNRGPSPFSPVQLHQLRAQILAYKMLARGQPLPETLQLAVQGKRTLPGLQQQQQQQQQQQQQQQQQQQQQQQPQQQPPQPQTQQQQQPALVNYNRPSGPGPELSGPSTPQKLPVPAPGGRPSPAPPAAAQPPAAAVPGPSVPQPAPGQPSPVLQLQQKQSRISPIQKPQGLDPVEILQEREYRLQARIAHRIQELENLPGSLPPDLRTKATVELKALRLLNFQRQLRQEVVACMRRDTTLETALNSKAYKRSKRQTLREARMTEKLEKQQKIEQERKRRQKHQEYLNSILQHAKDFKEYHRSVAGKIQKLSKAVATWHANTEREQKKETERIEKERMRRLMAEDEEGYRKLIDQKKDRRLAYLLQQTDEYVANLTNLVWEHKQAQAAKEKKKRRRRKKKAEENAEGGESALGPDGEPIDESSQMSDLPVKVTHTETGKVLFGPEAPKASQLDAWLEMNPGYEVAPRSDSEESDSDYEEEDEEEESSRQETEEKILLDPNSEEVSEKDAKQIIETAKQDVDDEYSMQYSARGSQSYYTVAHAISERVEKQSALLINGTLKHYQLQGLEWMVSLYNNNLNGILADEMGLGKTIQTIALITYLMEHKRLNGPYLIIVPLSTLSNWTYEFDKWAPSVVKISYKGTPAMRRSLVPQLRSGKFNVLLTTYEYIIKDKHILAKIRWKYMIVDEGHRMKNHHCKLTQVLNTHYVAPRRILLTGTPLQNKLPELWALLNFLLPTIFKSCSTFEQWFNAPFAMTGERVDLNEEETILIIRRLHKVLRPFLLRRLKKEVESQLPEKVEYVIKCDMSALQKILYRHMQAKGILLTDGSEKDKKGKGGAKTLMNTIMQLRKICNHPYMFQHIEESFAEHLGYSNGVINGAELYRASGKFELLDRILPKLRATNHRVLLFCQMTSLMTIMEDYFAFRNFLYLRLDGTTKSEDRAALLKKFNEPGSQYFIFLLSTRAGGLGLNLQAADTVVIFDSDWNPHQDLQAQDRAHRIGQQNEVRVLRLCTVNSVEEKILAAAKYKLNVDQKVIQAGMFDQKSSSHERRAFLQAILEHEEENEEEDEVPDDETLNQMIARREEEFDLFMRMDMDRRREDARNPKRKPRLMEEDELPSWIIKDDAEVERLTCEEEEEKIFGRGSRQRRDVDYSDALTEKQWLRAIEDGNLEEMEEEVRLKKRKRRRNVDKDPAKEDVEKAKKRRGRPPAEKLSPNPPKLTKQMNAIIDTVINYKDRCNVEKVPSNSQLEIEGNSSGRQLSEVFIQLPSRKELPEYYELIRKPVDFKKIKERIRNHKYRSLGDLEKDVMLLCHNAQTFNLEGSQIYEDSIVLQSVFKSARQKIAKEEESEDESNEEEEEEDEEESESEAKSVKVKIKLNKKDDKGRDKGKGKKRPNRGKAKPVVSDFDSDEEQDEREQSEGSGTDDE

[26] = Counterscreen for activators of the function of SWI/SNF related, matrix associated, actin dependent regulator of chromatin, subfamily a, member 2 (SMARCA2, BRM): Luminescence-based cell-based high throughput dose response assay to identify non-selective compounds using the VP16 reporter assay.; assay type: functional
[27] = target: T4, DNA repair protein RAD52 homolog (Homo sapiens, UniProt P43351); assay type: functional, biochemical
T4 sequence (P43351 whole entry): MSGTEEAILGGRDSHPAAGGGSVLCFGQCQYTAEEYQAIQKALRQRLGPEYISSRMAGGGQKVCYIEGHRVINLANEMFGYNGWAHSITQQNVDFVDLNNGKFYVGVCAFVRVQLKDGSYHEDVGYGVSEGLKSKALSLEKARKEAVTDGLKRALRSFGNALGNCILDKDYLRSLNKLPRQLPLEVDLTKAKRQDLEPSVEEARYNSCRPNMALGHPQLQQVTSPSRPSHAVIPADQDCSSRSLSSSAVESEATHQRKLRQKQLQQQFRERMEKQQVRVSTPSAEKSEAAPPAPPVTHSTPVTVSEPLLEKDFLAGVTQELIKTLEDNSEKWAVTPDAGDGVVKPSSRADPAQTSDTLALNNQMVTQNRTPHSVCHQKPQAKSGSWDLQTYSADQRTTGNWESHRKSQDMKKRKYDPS

[28] = system: HEK293; test: cells; settings: Homo sapiens
[29] = system: HEK293; test: cells; settings: Homo sapiens; remark: listed apart in the source

CCOc1ccccc1NC(=O)c1nc(S(=O)(=O)Cc2ccccc2)ncc1Cl
EC50 [1]: 12.5 µM (active)
EC50 [2]: 1.98 µM (active)
EC50 [3]: 13.7 µM (active)
AC50 [4]: 0.376 µM (active)
AC50 [5]: 16.9 µM (active)
AC50 [6]: 6.36 µM (active)
IC50 [7]: 7.85 µM (active)
IC50 [8]: 7.5 µM (active)
AC50 [9]: 7.1 µM (active)
AC50 [10]: 21.7 µM (active)

CC(C)N1C[C@H](C)[C@@H](CN(C)Cc2ccc(Oc3ccccc3)cc2)Oc2c(NC(=O)C3CCNCC3)cccc2C1=O
AC50 [11]: 8.99 µM (active)
AC50 [12]: 0.983 µM (active)
AC50 [13]: 0.983 µM (active)
AC50 [14]: 8.99 µM (active)

CCOC(=O)c1c(NC(=O)CN2C(=O)NC(C)(c3ccc(OC(F)F)cc3)C2=O)sc(C)c1C (centres undefined)
IC50 [15]: > 69.5 µM (inactive)
IC50 [16]: > 69.5 µM (inactive)

C[C@H](CO)N1C[C@H](C)[C@H](CN(C)C(=O)Nc2cccc3ccccc23)OCCCC[C@H](C)Oc2ccc(NC(=O)CCC(F)(F)F)cc2C1=O
AC50 [17]: 35 µM (active)
AC50 [18]: 4.02 µM (active)
AC50 [19]: 2.95 µM (active)

CCCC(=O)Nc1cc(-c2cn3cccnc3n2)ccc1OC
Ki [20]: > 66.7 µM (inactive)

COc1ccc(S(=O)(=O)N(C)C[C@@H]2Oc3ncc(/C=C/c4ccccc4)cc3C(=O)N([C@@H](C)CO)C[C@H]2C)cc1
AbsAC35 [21]: 77.19 µM
AbsAC35 [22]: 47.67 µM

CCN(CC)CC(=O)N1CCCC(N2CCN(c3cccc(C(F)(F)F)c3)CC2)C1 (centres undefined)
AC50 [23]: 33.4 µM (active)

COc1ccc(OC)c2nc3c(C(=O)NCCN(C)C)cccc3nc12
EC50 [24]: 46.5 µM (inactive)
EC50 [25]: 10.2 µM (inactive)
EC50 [26]: > 91.1 µM (inactive)
AC50 [27]: 0.59 µM (active)
EC50 [28]: > 6.63 µM (active)
EC50 [29]: > 59.7 µM (inactive)
